Measured values published in patent publication US12203089B2, “Plants having increased tolerance to herbicides” (BASF SE, priority 2015, dated 2025).

Columns and labels:
Type in all cases: in vivo
[1] = system: Brassica napus expressing BnaAnng01240D (SEQ ID 20) variant S1041L; assay: 6-well plate injury test, T1 seeds on vermiculite; conditions: 7 days after treatment
Method: (§1) Transgenic Brassica napus plants are assayed for improved tolerance to azine herbicides like e. g. 6-cyclopentyl-N4-(2,3,4,5,6-pentafluorophenyl)-1,3,5-triazine-2,4-diamine in 6-well plates. Therefore, 5-6 T1 seeds are sown on vermiculite and watered with half-strength murashige skoog nutrient solution, pH 5.8 (Murashige and Skoog (1962) Physiologia Plantarum 15: 473-497). Compounds are dissolved in dimethylsulfoxid (DMSO) and added to the medium (final DMSO concentration 0.1%). Multi well plates are incubated in a growth chamber at 22° C., 75% relative humidity and 110 μmol Phot*m^−2*s^−1 with 14: 10 h light: dark photoperiod. Growth inhibition is evaluated seven to ten days after seeding in comparison to wild type plants. Plant injury is rated on a scale of 0% to 100%, 0% being no injury and 100% being complete death.

[2] = system: Brassica napus wildtype; assay: 6-well plate injury test, seeds on vermiculite; conditions: 7 days after treatment
Method: as §1

[3] = system: Arabidopsis thaliana expressing AtCesA1_P1010L_G1013R (SEQ ID 1); assay: 48-well plate growth inhibition, T2 seeds, tolerance factor; conditions: based on IC50 values of growth inhibition, seven to ten days after seeding
Method: (§2) Transgenic Arabidopsis thaliana plants (T2) are assayed for improved tolerance to azine herbicides like e. g. 6-cyclopentyl-N4-(2,3,4,5,6-pentafluorophenyl)-1,3,5-triazine-2,4-diamine in 48-well plates. Therefore, T2 seeds are surface sterilized by stirring for 5 min in ethanol+water (70+30 by volume), rinsing one time with ethanol+water (70+30 by volume) and two times with sterile, deionized water. The seeds are resuspended in 0.1% agar dissolved in water (w/v) Four to five seeds per well are plated on solid nutrient medium consisting of half-strength murashige skoog nutrient solution, pH 5.8 (Murashige and Skoog (1962) Physiologia Plantarum 15: 473-497). Compounds are dissolved in dimethylsulfoxid (DMSO) and added to the medium prior solidification (final DMSO concentration 0.1%). Multi well plates are incubated in a growth chamber at 22° C., 75% relative humidity and 110 μmol Phot*m^−2*s^−1 with 14:10 h light:dark photoperiod. Growth inhibition is evaluated seven to ten days after seeding in comparison to wild type plants. Tolerance factors are calculated based on IC50 values of growth inhibition of transformed versus non-transformed Arabidopsis plants.

[4] = system: Arabidopsis thaliana expressing AtCesA1_G1009D_G1013R (SEQ ID 1); assay: as above; conditions: based on IC50 values of growth inhibition, seven to ten days after seeding
Method: as §2

[5] = system: Arabidopsis thaliana expressing AtCesA3_S983F_S1037F (SEQ ID 3); assay: as above; conditions: based on IC50 values of growth inhibition, seven to ten days after seeding
Method: as §2

[6] = system: Arabidopsis thaliana expressing AtCesA3_S983F_S1040L (SEQ ID 3); assay: as above; conditions: based on IC50 values of growth inhibition, seven to ten days after seeding
Method: as §2

[7] = system: Arabidopsis thaliana expressing AtCesA1_wt (SEQ ID 1); assay: as above; conditions: based on IC50 values of growth inhibition, seven to ten days after seeding
Method: as §2

[8] = system: Arabidopsis thaliana expressing AtCesA3_wt (SEQ ID 3); assay: as above; conditions: based on IC50 values of growth inhibition, seven to ten days after seeding
Method: as §2

Compound `NC(=O)c1nc(-c2ccccc2)n(-c2ccc(Cl)c(COCC(F)(F)C(F)(F)F)c2)n1` [1-[4-chloro-3-(2,2,3,3,3-pentafluoropropoxymethyl)phenyl]-5-phenyl-1,2,4-triazole-3-carboxamide, reference compound] has an average phytotox value ([1]; BnaAnng01240D S1041L event 1, 10^-4M) of 95%, an average phytotox value ([1]; BnaAnng01240D S1041L event 1, 10^-5M) of 85% and an average phytotox value ([1]; BnaAnng01240D S1041L event 1, 10^-6M) of 80%. It also gave an average phytotox value ([1]; BnaAnng01240D S1041L event 1, 10^-7M) of 10%, an average phytotox value ([1]; BnaAnng01240D S1041L event 1, 10^-8M) of 0% and an average phytotox value ([1]; BnaAnng01240D S1041L event 2, 10^-4M) of 90%. The average phytotox value ([1]; BnaAnng01240D S1041L event 2, 10^-5M) was 90%, the average phytotox value ([1]; BnaAnng01240D S1041L event 2, 10^-6M) was 90% and the average phytotox value ([1]; BnaAnng01240D S1041L event 2, 10^-7M) was 0%. It also gave an average phytotox value ([1]; BnaAnng01240D S1041L event 2, 10^-8M) of 0%, an average phytotox value ([2]; 10^-4M) of 96% and an average phytotox value ([2]; 10^-5M) of 93%. It also gave an average phytotox value ([2]; 10^-6M) of 84%, an average phytotox value ([2]; 10^-7M) of 41% and an average phytotox value ([2]; 10^-8M) of 4%. For the same compound, the “Relative tolerance rate as compared to non-transgenic Arabidopsis plants (non-transgenic = 1.0)” value (“Relative tolerance rate … (non-transgenic = 1.0)” for short) [3] was 400.
For `Cc1cccc(-n2nc(C(N)=O)nc2-c2ccccc2)c1` [1-(m-tolyl)-5-phenyl-1,2,4-triazole-3-carboxamide, reference compound], the “Relative tolerance rate … (non-transgenic = 1.0)” value [4] was 25, the “Relative tolerance rate … (non-transgenic = 1.0)” value [5] was 80 and the “Relative tolerance rate … (non-transgenic = 1.0)” value [6] was 100. For the same compound, the “Relative tolerance rate … (non-transgenic = 1.0)” value [7] was 3 and the “Relative tolerance rate … (non-transgenic = 1.0)” value [8] was 4.
